The target in the test is full-length ATR (Homo sapiens (Human), UniProt Q13535). As to the kind of experiment: ATR Inhibition Assay (radioactive-phosphate incorporation). The class given is biochemical. The settings on record: read-out: ATR Ki. The method, then: Compounds were screened for their ability to inhibit ATR kinase using a radioactive-phosphate incorporation assay. Assays were carried out in a mixture of 50 mM Tris/HCl (pH 7.5), 10 mM MgCl2 and 1 mM DTT. Final substrate concentrations were […] [γ-33P]ATP (3mCi 33P ATP/mmol ATP, Perkin Elmer) and 800 μM target peptide ([…]).
Assays were carried out at 25° C. in the presence of 5 nM full-length ATR. An assay stock buffer solution was prepared containing all of the reagents listed above, with the exception of ATP and the test compound of interest. […] The plate was pre-incubated for 10 minutes at 25° C. and the reaction initiated by addition of 15 μL [γ-33P]ATP (final concentration 10 μM).
The reaction was stopped after […] by the addition of 30 μL 0.1M phosphoric acid containing 2 mM ATP. A multiscreen phosphocellulose filter 96-well plate (Millipore, Cat no. MAPHN0B50) was pretreated with 100 μL 0.2M phosphoric acid prior to the addition of 45 μL of the stopped assay mixture. […] After drying, 100 μL Optiphase ‘SuperMix’ liquid scintillation cocktail (Perkin Elmer) was added to the well prior to scintillation counting (1450 Microbeta Liquid Scintillation Counter, Wallac).
After removing mean background values for all of the data points, Ki(app) data were calculated from non-linear regression analysis of the initial rate data using the Prism software package (GraphPad Prism version 3.0cx for Macintosh, GraphPad Software, San Diego Calif., USA).

For orientation: Ki means a dissociation constant, usually derived from enzyme kinetics or from competition with a known ligand.

Sequence of full-length ATR (Q13535 whole entry): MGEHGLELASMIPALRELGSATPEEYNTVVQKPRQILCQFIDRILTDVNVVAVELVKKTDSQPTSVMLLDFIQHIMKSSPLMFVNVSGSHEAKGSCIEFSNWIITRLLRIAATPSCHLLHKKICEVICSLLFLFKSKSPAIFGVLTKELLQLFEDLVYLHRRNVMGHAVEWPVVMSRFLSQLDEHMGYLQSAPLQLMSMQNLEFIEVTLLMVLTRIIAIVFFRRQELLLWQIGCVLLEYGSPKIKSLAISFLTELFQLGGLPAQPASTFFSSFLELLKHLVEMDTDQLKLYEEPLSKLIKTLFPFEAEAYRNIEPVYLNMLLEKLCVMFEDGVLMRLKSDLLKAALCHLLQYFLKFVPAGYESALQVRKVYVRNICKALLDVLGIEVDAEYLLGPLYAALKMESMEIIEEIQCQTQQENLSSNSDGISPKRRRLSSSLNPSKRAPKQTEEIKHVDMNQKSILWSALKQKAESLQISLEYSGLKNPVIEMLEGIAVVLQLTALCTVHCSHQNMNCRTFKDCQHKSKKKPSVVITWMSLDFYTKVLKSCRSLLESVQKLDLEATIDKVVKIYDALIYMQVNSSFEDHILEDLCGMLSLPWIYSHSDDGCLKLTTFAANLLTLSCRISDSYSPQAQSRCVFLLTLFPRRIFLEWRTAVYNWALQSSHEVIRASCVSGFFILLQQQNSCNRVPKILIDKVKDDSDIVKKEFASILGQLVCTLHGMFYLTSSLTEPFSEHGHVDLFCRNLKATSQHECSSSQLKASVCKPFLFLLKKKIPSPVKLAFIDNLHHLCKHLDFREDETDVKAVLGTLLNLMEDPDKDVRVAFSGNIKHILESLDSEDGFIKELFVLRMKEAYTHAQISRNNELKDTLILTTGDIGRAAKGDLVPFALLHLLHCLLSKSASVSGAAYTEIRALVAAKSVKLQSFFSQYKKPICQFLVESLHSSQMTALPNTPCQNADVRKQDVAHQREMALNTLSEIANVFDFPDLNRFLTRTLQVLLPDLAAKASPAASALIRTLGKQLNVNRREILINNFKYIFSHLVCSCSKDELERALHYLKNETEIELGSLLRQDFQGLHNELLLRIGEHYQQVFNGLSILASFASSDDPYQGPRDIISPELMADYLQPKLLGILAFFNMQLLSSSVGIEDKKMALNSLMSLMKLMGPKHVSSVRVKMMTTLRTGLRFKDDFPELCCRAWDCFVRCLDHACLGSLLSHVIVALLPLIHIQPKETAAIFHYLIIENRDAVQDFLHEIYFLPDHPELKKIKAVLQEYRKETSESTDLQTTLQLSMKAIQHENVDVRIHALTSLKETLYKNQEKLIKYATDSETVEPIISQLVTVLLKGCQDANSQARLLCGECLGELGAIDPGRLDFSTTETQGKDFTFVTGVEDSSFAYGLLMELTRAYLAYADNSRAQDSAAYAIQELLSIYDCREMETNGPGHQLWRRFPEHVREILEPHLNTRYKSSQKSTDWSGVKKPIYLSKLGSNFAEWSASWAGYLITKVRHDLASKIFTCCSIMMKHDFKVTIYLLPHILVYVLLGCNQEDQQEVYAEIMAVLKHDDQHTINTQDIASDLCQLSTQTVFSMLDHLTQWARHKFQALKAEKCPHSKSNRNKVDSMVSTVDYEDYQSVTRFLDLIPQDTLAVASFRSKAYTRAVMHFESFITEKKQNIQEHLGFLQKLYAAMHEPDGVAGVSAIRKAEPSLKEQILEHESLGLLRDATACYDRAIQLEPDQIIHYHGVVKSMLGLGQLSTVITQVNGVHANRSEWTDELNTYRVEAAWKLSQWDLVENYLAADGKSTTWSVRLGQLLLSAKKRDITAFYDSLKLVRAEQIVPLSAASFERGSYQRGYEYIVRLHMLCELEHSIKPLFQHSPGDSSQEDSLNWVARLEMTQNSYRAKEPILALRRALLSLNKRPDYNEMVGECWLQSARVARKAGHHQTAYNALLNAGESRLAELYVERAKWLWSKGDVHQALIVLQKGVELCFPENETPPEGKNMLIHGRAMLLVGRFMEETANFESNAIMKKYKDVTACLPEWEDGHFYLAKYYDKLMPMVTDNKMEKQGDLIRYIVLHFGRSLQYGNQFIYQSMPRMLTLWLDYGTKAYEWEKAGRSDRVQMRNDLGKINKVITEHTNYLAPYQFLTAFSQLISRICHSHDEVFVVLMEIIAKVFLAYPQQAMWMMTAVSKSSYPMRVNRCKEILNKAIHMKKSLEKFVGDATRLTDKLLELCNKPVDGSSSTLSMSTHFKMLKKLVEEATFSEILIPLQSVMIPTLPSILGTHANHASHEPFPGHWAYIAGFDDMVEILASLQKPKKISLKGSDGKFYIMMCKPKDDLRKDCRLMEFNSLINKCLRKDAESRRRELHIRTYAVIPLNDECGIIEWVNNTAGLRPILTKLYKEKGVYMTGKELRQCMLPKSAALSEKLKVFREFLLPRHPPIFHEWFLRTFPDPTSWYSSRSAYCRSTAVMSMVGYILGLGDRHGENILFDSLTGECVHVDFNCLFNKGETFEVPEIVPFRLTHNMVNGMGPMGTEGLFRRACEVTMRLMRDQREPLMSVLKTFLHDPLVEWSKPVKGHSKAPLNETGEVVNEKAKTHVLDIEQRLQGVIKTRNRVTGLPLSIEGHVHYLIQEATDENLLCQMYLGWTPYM

Consider `CC(C)S(=O)(=O)c1ccc(-c2cnc(N)c(-c3nnc(NC(=O)CN)o3)n2)cc1` [IA-82, 2-amino-N-[5-[3-amino-6-(4-isopropylsulfonylphenyl)pyrazin-2-yl]-1,3,4-oxadiazol-2-yl]acetamide], for which the Ki was in the range of 100 to 5000 nM.

Regarding `COc1ccccc1NC(=O)c1nc(-c2ccc3[nH]ncc3c2)cnc1N` [Compound I-36, 3-amino-6-(1H-indazol-5-yl)-N-(2-methoxyphenyl)pyrazine-2-carboxamide], the inhibition constant (Ki) lay in the range of 10 to 100 nM.

As to `CN(C)C(=O)c1ccc(-c2cnc(N)c(-c3nnc(-c4ccccc4)o3)n2)c(Cl)c1` [IA-46], the inhibition constant (Ki) is 10 to 100 nM.

Regarding `N#Cc1cccc(-c2cnc(N)c(-c3nnc(-c4ccccc4)o3)n2)c1` [IA-252, 3-[5-amino-6-(5-phenyl-1,3,4-oxadiazol-2-yl)pyrazin-2-yl]benzonitrile], the Ki lay within 10 to 100 nM.

Take `CS(=O)(=O)c1ccc(-c2cnc(N)c(-c3nc4ccc(C(F)(F)F)cc4[nH]3)n2)cc1` [Compound I-118, 5-(4-(methylsulfonyl)phenyl)-3-(6-(trifluoromethyl)-1H-benzo[d]imidazol-2-yl)pyrazin-2-amine]: the inhibition constant Ki is ≤ 10 nM.

As for `CCS(=O)(=O)c1ccc(-c2cnc(N)c(-c3nnc(-c4ccc(CNC)cc4)o3)n2)cc1` [IA-307, 5-(4-(ethylsulfonyl)phenyl)-3-(5-(4-((methylamino)methyl)phenyl)-1,3,4-oxadiazol-2-yl)pyrazin-2-amine], the inhibition constant Ki was ≤ 10 nM.

As to `C#Cc1ccccc1-c1cnc(N)c(-c2nnc(-c3ccccc3)o2)n1` [IA-194, 5-(2-ethynylphenyl)-3-(5-phenyl-1,3,4-oxadiazol-2-yl)pyrazin-2-amine], the Ki fell in the range of 100 to 5000 nM.

`CC(C)S(=O)(=O)c1ccc(-c2cnc(N)c(-c3nnc(C4=CCNCC4)o3)n2)cc1` [IA-232, 5-(4-isopropylsulfonylphenyl)-3-[5-(1,2,3,6-tetrahydropyridin-4-yl)-1,3,4-oxadiazol-2-yl]pyrazin-2-amine]: the Ki lay in the range of 10 to 100 nM.

In the case of `CNCc1ccc(-c2nnc(-c3nc(-c4ccc(S(=O)(=O)CCCO)cc4)cnc3N)o2)cc1` [IA-301, 3-[4-[5-amino-6-[5-[4-(methylaminomethyl)phenyl]-1,3,4-oxadiazol-2-yl]pyrazin-2-yl]phenyl]sulfonylpropan-1-ol], the inhibition constant (Ki) is ≤ 10 nM.

On to `CS(=O)(=O)c1ccc(-c2cnc(N)c(C(=O)Nc3ccc4cc[nH]c4n3)n2)cc1` [Compound V-12], for which the inhibition constant (Ki) is ≤ 10 nM.

For the compound `Cc1ccsc1-c1nnc(-c2nc(-c3ccccc3[S+](C)[O-])cnc2N)o1` (stereo not drawn) [IA-179, 5-(2-methylsulfinylphenyl)-3-[5-(3-methyl-2-thienyl)-1,3,4-oxadiazol-2-yl]pyrazin-2-amine], the Ki was ≤ 10 nM.

For the compound `CN(C)C(=O)c1ccc(-c2cnc(N)c(-c3nnc(-c4cccc(CNC(=O)OC(C)(C)C)c4)o3)n2)cc1` [IA-73, tert-butyl N-[[3-[5-[3-amino-6-[4-(dimethylcarbamoyl)phenyl]pyrazin-2-yl]-1,3,4-oxadiazol-2-yl]phenyl]methyl]carbamate], the inhibition constant (Ki) is ≤ 10 nM.

`CC(C)S(=O)(=O)c1ccc(-c2cnc(N)c(-c3nnc(-c4cccc(C5CNC5)c4)o3)n2)cc1` [IA-185, 3-[5-[3-(azetidin-3-yl)phenyl]-1,3,4-oxadiazol-2-yl]-5-(4-isopropylsulfonylphenyl)pyrazin-2-amine]: the inhibitory constant (Ki) lay within 10 to 100 nM.

As to `CC(CCN(C)C)S(=O)(=O)c1ccc(-c2cnc(N)c(-c3nnc(-c4ccccc4F)o3)n2)cc1` (stereo not drawn) [IA-343, 5-[4-[3-(dimethylamino)-1-methyl-propyl]sulfonylphenyl]-3-[5-(2-fluorophenyl)-1,3,4-oxadiazol-2-yl]pyrazin-2-amine], the Ki was ≤ 10 nM.

For `N#Cc1ccc(-c2cnc(N)c(C(=O)Nc3ccccc3)n2)cc1` [Compound I-21, 3-amino-6-(4-cyanophenyl)-N-phenylpyrazine-2-carboxamide], the Ki lay in the range of 10 to 100 nM.

The values above are taken from patent US10479784B2, “Substituted pyrazin-2-amines as inhibitors of ATR kinase” (Vertex Pharmaceuticals Incorporated, priority 2008, dated 2019).
